Like-named read-outs stand apart in the source and are kept apart here.
Key:
[1] = system: platelet aggregation induced by A23187; experiment: Ex vivo platelet aggregation in platelet rich plasma of volunteers after a single oral dose, induced by calcium ionophore A23187 (2.5 μM); set-up: species or system human; conditions: for inhibition of platelet aggregation induced by A23187 (in words): single oral dose, 24 hours; for % Inhibition A23187: aspirin 10 mg single oral dose, blood 24 hours after ingestion vs pre-dose, PRP, A23187 2.5 μM
Method: (§1) The PRP samples were treated in vitro with calcium ionophore (A23187, 2.5 μM) or arachidonic acid (AA, 1.6 mM) to induce maximal aggregation. Platelet aggregation was monitored using a Dual-channel Lumi-aggregometer (Model 400, Chronolog Corporation, USA) using 0.45 ml samples of PRP. The resulting aggregation was recorded for all of the samples and a comparison was made between the pre- and post-test drug ingestion aggregation levels. The data was analysed using the Student's t-test and differences were considered significant when probability (p) was <0.05.

[2] = system: platelet aggregation induced by adrenaline; conditions: Saeed et al. 1998; cited from earlier work
[3] = system: platelet aggregation induced by PAF; conditions: Saeed et al. 1998; cited from earlier work
[4] = system: platelet aggregation induced by AA; experiment: Ex vivo platelet aggregation in platelet rich plasma of volunteers after a single oral dose, induced by arachidonic acid (1.6 mM); set-up: species or system human; conditions: for inhibition of platelet aggregation induced by AA (in words): single oral dose, 24 hours
Method: as §1

[5] = system: platelet aggregation induced by AA; conditions: Saeed et al. 1998; cited from earlier work
[6] = nimesulide at doses of 25 or 50 mg
[7] = aspirin at a dose of 20 mg or 40 mg

Structure (SMILES): CS(=O)(=O)Nc1ccc([N+](=O)[O-])cc1Oc1ccccc1 [Nimesulide, N-(4-nitro-2-phenoxyphenyl)methanesulfonamide]
- inhibition of platelet aggregation induced by A23187 (in words) [1, 6]: effectively inhibited
- inhibition of platelet aggregation induced by adrenaline (in words) [2]: inhibits
- inhibition of platelet aggregation induced by PAF (in words) [3]: inhibit
- inhibition of platelet aggregation induced by AA (in words) [4, 6]: effectively inhibited
- inhibition of platelet aggregation induced by AA (in words) [5]: inhibit

Structure (SMILES): CC(=O)Oc1ccccc1C(=O)O [Aspirin, 2-acetoxybenzoic acid]
- % Inhibition A23187 [1]: 27%
- % Inhibition A23187 ([1]; listed as aspirin): about 25%
- inhibition of platelet aggregation induced by A23187 (in words) [1, 7]: effectively inhibited
- inhibition of platelet aggregation induced by PAF (in words) [3]: inhibit
- % Inhibition AA ([4]; aspirin 10 mg single oral dose, blood 24 hours after ingestion vs pre-dose, PRP, AA 1.6 mM): 4%
- inhibition of platelet aggregation induced by AA (in words) ([4]; aspirin 10 mg): ineffective
- inhibition of platelet aggregation induced by AA (in words) [4, 7]: effectively inhibited
- inhibition of platelet aggregation induced by AA (in words) [5]: inhibit
